The results in this text go back to ChEMBL document CHEMBL5335794, “Discovery of novel multifunctional ligands targeting GABA transporters, butyrylcholinesterase, β-secretase, and amyloid β aggregation as potential treatment of Alzheimer's disease” (Eur J Med Chem, 2023).

Molecules are shown by their SMILES.

The target of assay [1] is T1, GABA transporter 4 (Mus musculus, UniProt P31650).
T1 sequence (P31650 whole entry): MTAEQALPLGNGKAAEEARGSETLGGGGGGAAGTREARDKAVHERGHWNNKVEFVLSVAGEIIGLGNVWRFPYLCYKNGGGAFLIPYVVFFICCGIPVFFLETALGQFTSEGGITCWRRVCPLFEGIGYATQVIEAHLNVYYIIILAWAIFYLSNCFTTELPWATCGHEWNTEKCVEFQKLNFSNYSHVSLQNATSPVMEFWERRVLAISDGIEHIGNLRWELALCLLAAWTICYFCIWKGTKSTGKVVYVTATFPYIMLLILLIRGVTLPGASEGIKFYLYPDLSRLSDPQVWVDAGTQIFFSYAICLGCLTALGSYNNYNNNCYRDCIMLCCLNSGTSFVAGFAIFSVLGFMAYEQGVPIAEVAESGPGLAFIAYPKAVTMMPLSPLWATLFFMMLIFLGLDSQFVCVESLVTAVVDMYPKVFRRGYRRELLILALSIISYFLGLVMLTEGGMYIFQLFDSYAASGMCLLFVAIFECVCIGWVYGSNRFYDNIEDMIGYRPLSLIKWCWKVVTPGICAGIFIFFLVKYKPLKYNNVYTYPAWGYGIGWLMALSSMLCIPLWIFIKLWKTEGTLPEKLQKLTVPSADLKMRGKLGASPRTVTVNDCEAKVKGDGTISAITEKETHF
In words: Inhibition of mouse GAT4 transfected in HEK293 cells assessed as reduction in [3H]-GABA uptake preincubated for 25 mins followed by [3H]-GABA addition and measured after 4 mins by liquid scintillation counting analysis. In kind it is cell-based.

Assay [2] deals with T2, Sodium- and chloride-dependent GABA transporter 1 (Mus musculus, UniProt P31648). In words: Inhibition of mouse GAT1 transfected in HEK293 cells assessed as reduction in [3H]-GABA uptake preincubated for 25 mins followed by [3H]-GABA addition and measured after 4 mins by liquid scintillation counting analysis. In kind it is cell-based.
Assay [3] concerns the target T3, GABA transporter 2 (Mus musculus) (UniProt P31651).
T3 sequence (whole entry): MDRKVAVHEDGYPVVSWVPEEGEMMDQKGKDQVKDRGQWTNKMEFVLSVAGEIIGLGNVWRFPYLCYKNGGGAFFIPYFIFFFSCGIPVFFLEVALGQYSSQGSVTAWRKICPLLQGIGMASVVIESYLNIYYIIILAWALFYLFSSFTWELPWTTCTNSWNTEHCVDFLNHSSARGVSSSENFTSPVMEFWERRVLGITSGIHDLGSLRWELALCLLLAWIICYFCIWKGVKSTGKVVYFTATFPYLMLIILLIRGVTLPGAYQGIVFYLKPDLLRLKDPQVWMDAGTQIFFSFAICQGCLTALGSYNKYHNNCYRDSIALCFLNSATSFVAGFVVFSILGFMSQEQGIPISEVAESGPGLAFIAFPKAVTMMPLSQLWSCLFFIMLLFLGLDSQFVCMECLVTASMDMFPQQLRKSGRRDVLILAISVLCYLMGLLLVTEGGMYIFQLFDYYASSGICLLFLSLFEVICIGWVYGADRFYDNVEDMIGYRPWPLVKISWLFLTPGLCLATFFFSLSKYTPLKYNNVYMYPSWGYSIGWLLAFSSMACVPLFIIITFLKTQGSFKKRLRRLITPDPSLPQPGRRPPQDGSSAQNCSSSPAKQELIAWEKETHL
In words: Inhibition of mouse GAT2 transfected in HEK293 cells assessed as reduction in [3H]-GABA uptake by measuring residual activity at 100 uM preincubated for 25 mins followed by [3H]-GABA addition and measured after 10 mins by liquid scintillation counting analysis relative to control. Format: cell-based. As to conditions: time 35.0 min.

Assay [4] deals with T2, Sodium- and chloride-dependent GABA transporter 1. In words: Inhibition of NO 711 marker binding to mouse GAT1 by LC-ESI-MS/MS based competitive MS binding assay.
In assay [5] the target is Acetylcholinesterase (Electrophorus electricus) (UniProt O42275). In words: Inhibition of electric eel AChE using acetylthiocholine iodide as substrate at 10 uM preincubated for 5 mins followed by substrate addition and measured after 5 mins by DTNB reagent based Ellman's method relative to control. Conditions: time 10.0 min. In general terms: DTNB colorimetry detects thiols as they appear.

The nature of assay [6]: Inhibition of mouse GAT3 transfected in HEK293 cells assessed as reduction in [3H]-GABA uptake preincubated for 25 mins followed by [3H]-GABA addition and measured after 4 mins by liquid scintillation counting analysis. Conditions: HEK293. In kind it is cell-based.
The target of assay [7] is Cholinesterase (Equus caballus, UniProt P81908).
Description: Inhibition of equine serum BuChE using butyrylthiocholine iodide as substrate preincubated for 5 mins followed by substrate addition and measured after 5 mins by DTNB reagent based Ellman's method
The target in assay [8] is Sodium- and chloride-dependent GABA transporter 1 (Mus musculus) (UniProt P31648). The assay can be described thus: Inhibition of mouse GAT1 transfected in HEK293 cells assessed as reduction in [3H]-GABA uptake by measuring residual activity at 100 uM preincubated for 25 mins followed by [3H]-GABA addition and measured after 4 mins by liquid scintillation counting analysis relative to control. Format: cell-based. As to conditions: time 29.0 min.

Assay [9] has the same target. The assay can be described thus: Inhibition of NO 711 marker binding to mouse GAT1 assessed as residual activity at 100 uM by LC-ESI-MS/MS based competitive MS binding assay relative to control.
Assay [10] has as its target T4, Beta-secretase 1 (Homo sapiens, UniProt P56817). Conditions: dose 50.0 µM, time 60.0 min.
Assay [11] concerns the target Cholinesterase (Equus caballus) (UniProt P81908). The assay can be described thus: Inhibition of equine serum BuChE using butyrylthiocholine iodide as substrate at 10 uM preincubated for 5 mins followed by substrate addition and measured after 5 mins by DTNB reagent based Ellman's method relative to control. Conditions: time 10.0 min.
Assay [12] addresses T5, GABA transporter 4 (Mus musculus) (UniProt P31650).
T5 sequence (whole entry): T1 sequence (P31650 whole entry)
In words: Inhibition of mouse GAT4 transfected in HEK293 cells assessed as reduction in [3H]-GABA uptake by measuring residual activity at 100 uM preincubated for 25 mins followed by [3H]-GABA addition and measured after 4 mins by liquid scintillation counting analysis relative to control. In kind it is cell-based. Conditions: time 29.0 min.

Assay [13] concerns the target T4, Beta-secretase 1.
Assay [14] addresses T2, Sodium- and chloride-dependent GABA transporter 1.
In assay [15] the target is T1, GABA transporter 4.
Assay [16] deals with T6, GABA transporter 2 (Mus musculus, UniProt P31651).
T6 sequence (P31651 whole entry): T3 sequence (whole entry)

Assay [17] deals with Amyloid-beta precursor protein (Homo sapiens) (UniProt P05067). In words: Inhibition of amyloid beta42 (unknown origin) aggregation expressed in Escherichia coli BL21 (DE3) at 10 uM measured every 5 mins by ThT fluorescence based assay relative to control.
The target in assay [18] is T6, GABA transporter 2. The assay can be described thus: Inhibition of mouse GAT2 transfected in HEK293 cells assessed as reduction in [3H]-GABA uptake preincubated for 25 mins followed by [3H]-GABA addition and measured after 10 mins by liquid scintillation counting analysis. In kind it is cell-based.
Assay [19] addresses Amyloid-beta precursor protein (Homo sapiens) (UniProt P05067). In words: Inhibition of amyloid beta40 (unknown origin) aggregation at 10 uM measured every 5 mins by ThT fluorescence based assay relative to control.

Chain of Acetylcholinesterase (Electrophorus electricus) (O42275 24-633 limits assumed): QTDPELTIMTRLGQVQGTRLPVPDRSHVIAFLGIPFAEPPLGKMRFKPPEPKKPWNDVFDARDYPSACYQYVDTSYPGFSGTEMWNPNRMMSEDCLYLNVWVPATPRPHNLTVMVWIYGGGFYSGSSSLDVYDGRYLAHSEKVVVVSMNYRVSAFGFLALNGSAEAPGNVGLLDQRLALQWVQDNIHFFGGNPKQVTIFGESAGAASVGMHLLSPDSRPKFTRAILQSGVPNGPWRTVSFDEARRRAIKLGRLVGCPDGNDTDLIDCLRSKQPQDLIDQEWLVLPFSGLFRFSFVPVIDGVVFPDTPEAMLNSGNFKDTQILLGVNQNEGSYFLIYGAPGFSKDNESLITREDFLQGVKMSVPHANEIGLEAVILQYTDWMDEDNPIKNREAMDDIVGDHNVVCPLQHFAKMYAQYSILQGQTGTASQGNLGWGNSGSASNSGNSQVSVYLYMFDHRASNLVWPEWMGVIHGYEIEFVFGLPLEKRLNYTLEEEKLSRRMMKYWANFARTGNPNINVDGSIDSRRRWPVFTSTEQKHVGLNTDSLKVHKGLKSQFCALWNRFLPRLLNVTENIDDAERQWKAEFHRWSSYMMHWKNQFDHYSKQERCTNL
Chain of Cholinesterase (P81908 whole entry): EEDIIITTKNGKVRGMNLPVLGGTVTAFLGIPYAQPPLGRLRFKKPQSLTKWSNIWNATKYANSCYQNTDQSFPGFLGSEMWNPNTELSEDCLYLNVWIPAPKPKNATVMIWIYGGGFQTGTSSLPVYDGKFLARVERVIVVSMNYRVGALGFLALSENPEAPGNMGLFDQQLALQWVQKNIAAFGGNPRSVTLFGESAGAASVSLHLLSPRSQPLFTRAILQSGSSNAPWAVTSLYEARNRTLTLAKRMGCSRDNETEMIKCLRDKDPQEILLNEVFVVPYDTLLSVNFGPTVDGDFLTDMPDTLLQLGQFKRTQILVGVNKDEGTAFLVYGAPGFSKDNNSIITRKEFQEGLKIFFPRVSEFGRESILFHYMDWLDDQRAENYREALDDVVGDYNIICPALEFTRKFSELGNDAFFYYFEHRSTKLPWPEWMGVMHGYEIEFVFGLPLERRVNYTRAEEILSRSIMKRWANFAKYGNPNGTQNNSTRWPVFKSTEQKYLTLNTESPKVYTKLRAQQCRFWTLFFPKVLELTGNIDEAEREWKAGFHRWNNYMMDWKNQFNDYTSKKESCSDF
Chain of Amyloid-beta precursor protein (Homo sapiens) (P05067 whole entry): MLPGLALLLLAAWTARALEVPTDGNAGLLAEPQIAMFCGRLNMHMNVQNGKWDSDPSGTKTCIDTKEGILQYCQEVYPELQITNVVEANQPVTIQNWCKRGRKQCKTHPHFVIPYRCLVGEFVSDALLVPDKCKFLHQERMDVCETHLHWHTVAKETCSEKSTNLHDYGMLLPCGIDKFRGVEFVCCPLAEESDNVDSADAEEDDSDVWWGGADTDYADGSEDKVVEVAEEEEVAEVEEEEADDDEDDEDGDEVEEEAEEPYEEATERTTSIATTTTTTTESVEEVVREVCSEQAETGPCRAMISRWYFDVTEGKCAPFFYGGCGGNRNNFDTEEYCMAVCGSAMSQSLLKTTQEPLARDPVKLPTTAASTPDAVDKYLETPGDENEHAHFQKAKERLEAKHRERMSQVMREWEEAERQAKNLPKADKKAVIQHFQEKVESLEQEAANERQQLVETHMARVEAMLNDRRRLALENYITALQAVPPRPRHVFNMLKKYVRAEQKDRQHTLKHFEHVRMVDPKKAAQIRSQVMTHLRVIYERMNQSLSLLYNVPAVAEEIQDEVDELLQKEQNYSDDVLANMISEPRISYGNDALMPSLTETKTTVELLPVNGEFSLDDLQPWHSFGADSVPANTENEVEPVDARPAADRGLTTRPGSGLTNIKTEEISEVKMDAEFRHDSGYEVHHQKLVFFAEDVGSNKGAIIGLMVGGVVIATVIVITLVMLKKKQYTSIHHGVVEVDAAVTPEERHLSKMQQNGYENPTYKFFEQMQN
T4 sequence (P56817 whole entry): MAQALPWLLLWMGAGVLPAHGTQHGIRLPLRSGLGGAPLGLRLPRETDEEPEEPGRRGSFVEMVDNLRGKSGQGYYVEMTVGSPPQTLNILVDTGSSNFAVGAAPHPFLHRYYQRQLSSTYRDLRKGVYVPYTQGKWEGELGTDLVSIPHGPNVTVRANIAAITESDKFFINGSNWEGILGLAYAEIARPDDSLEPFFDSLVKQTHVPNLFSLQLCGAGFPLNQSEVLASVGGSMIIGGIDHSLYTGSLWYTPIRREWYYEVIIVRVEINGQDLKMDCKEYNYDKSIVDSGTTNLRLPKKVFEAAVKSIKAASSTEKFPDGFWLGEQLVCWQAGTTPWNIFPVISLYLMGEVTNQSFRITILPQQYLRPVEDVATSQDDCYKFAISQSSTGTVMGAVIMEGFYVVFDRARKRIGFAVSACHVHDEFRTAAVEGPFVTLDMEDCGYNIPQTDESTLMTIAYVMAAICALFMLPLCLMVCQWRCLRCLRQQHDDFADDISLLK
Chain of Cholinesterase (Equus caballus) (P81908 whole entry): as the sequence (P81908 whole entry) above

For `CN(CCC=C(c1ccccc1)c1ccccc1)C(=O)C1Cc2c([nH]c3ccccc23)CN1` (stereo not given), the IC50 in assay [1] (read-out: IC50) is 6.3 µM; in assay [2] (read-out: pIC50 (converted)), 12 µM; in assay [6] (read-out: IC50), 4.1 µM; in assay [6] (read-out: pIC50 (converted)), 4.07 µM; in [7] it was 3130 nM. Moreover, the Activity in [3] is 55%. For the same compound, the Ki in [4] was 79.4 µM. Further, the inhibition in [5] came to 38%.

Take `CN(CCOCCN1c2ccccc2Sc2ccccc21)C(CCO)C(=O)NCc1ccc(Cl)cc1` (stereo not given): the IC50 is 20.9 µM in assay [1] (read-out: pIC50 (converted)), 7.94 µM in assay [6] (read-out: pIC50 (converted)) and 4270 nM in assay [7]. For the same compound, the values for the Activity in assay [8], in assay [3] and in assay [9] were 57%, 55% and 96%, respectively. The inhibition was less than 10% in assay [5] and 44% in [10].

Turning to `O=C(NC1CCN(C(c2ccccc2)c2ccccc2)CC1)C1CC2c3ccccc3NC2CN1` (stereo not given), the Activity was 87% in [8], 57% in assay [3], 89% in [12] and 73% in assay [9]. The inhibition in assay [11] and in assay [5] was less than 10% each time.

With `CN(CC/C=C/c1ccccc1-c1ccc(Cl)cc1Cl)C(CCO)C(=O)NCc1ccccc1` (stereo not given), the values for the IC50 in assay [1] (read-out: pIC50 (converted)) and in assay [6] (read-out: pIC50 (converted)) were 7.41 µM and 7.76 µM, respectively. Further, the Activity in assay [8] is 45%; in assay [3], 13%; in [9] it was 49%. Besides, the values for the inhibition in assay [11] and in [10] were 47% and 52%, respectively.

Turning to `CN(CC/C=C/c1ccccc1-c1ccc(Cl)cc1Cl)C(CCN)C(=O)NCc1ccccc1` (stereo not given), the IC50 in assay [1] (read-out: pIC50 (converted)) was 7.41 µM; in assay [2] (read-out: IC50), 5.5 µM; in assay [6] (read-out: pIC50 (converted)) it was 6.61 µM; in assay [7], 1430 nM; in assay [13] it was 5.41 µM. For the same compound, the Activity in [3] came to 18%. The compound also gave a Ki in assay [4] of 28.2 µM.

As to `CC(CC(=O)O)NCCOCCN1c2ccccc2Sc2ccccc21` (stereo not given), the IC50 in assay [14] stood at 9 µM.

Consider `CN(CCC=C(c1ccccc1)c1ccccc1)C(CN)C(=O)NCc1ccccc1Cl` (stereo not given), for which the IC50 in assay [15] came out at 9 µM; in [14], 13 µM; in [16], 6 µM.

Consider `CN(CCOCCN1c2ccccc2Sc2ccccc21)C(CCN)C(=O)NCc1ccccc1` (stereo not given), for which the IC50 was 15.1 µM in assay [1] (read-out: pIC50 (converted)); 15.8 µM in assay [2] (read-out: pIC50 (converted)); 3 µM in assay [18] (read-out: IC50); 10 µM in assay [6] (read-out: pIC50 (converted)); 350 nM in [7]; 22.9 µM in assay [13]. In addition, the inhibition in assay [17] was 34.9%; in assay [19], 96.7%; in [5] it was less than 10%. For the same compound, the Ki in assay [4] was 67.6 µM.

Take `CN(CCOCCN1c2ccccc2Sc2ccccc21)C(CCN)C(=O)NCc1ccccc1Cl` (stereo not given): the IC50 in [1] (read-out: pIC50 (converted)) was 8.71 µM; in assay [2] (read-out: pIC50 (converted)) it was 12.6 µM; in assay [18] (read-out: pIC50 (converted)) it was 6.61 µM; in [6] (read-out: pIC50 (converted)) it was 6.17 µM; in [7], 411 nM; in [13] it was 5.17 µM. For the same compound, the inhibition in [17] was 27.1%; in assay [19] it was 74%; in assay [5] it was 14%. Moreover, in assay [4], affinity was put at a Ki of 57.5 µM.

In turn, `Cc1ccsc1C(=CCCN(C)[C@H]1CCCC[C@H]1C(=O)O)c1sccc1C` came in with an IC50 in assay [16] of 21 µM.

For the compound `CN(CCOCCn1c2ccccc2c2ccccc21)C(CCN)C(=O)NCc1ccccc1Cl` (stereo not given), the IC50 in [1] (read-out: pIC50 (converted)) was 9.33 µM; in [2] (read-out: pIC50 (converted)) it was 19.5 µM; in assay [18] (read-out: pIC50 (converted)) it was 8.32 µM; in assay [6] (read-out: pIC50 (converted)) it was 12.9 µM; in assay [7] it was 204 nM. The inhibition in assay [17] was 30.2%; in assay [19], 92.4%; in [5] it was less than 10%; in assay [10] it was 79%. The compound also had a Ki in assay [4] of 93.3 µM.

For `O=C(O)[C@@H]1CCCN(CCOCCN2c3ccccc3Sc3ccccc32)C1`, in [14], the IC50 was found to be 0.3 µM.

For the compound `CN(CCC=C(c1ccccc1)c1ccccc1)C(CO)C(=O)NCc1ccccc1Cl` (stereo not given), the IC50 in assay [15] came to 10 µM; in assay [14], 19 µM; in assay [16], 13 µM.

With `CN(CCOCCN1c2ccccc2Sc2ccccc21)C(CCN)C(=O)NCc1ccc(F)cc1` (stereo not given), the IC50 is 14.1 µM in assay [1] (read-out: pIC50 (converted)); 14.8 µM in [2] (read-out: pIC50 (converted)); 10.2 µM in [18] (read-out: pIC50 (converted)); 8.32 µM in [6] (read-out: pIC50 (converted)); 1020 nM in [7]; 5.35 µM in assay [13]. Moreover, the results for the inhibition in assay [17], in assay [19] and in assay [5] were 23.9%, 74.7% and less than 10%, respectively. In [4], this compound had a Ki of 77.6 µM.

One may read the Ki as the equilibrium dissociation constant of an inhibitor or competing ligand from its target. Low readings indicate a stronger hold on the target, high ones a looser hold on the target. As a reminder, the inhibition is the drop in the measured response relative to a control, in per cent. Low readings indicate a response near the control, high ones a response far below the control.
